# Columns and labels:
# [1] = Analysis for active in the sealant without and after water storage (retention / leaching); assay type: physicochemical; conditions: silicone; for Active [ppm] Oit: oxime basis, 1000 ppm added
# Experimental: These sections, described below as test specimens, were subjected, both without water storage and after 2 days of water storage in fully demineralized water, with a change of water at 24 hours, to the ISO 846 test, part B. In this test, the test specimens were placed on carbon-containing nutrient media (complete agar) for monitoring of the fungicidal action, and were then sprayed with a mixture of fungal spores; 0.1 ml of suspension per test specimen.
# These sealants were analyzed for the amounts of OIT present, both without water storage and after 2 days of water storage, and the leaching (%) was calculated.
# [2] = test system: mixture of fungal spores (Aspergillus niger, Alternaria alternata, Penicillium funiculosum, Paecilomyces variotii, Gliocladium virens, Chaetomium globosum); assay: Microbiological test along the lines of EN ISO 846 part B: fungal growth on sealant test specimens on complete agar; assay type: cell-based; set-up: key to Fungal growth after 28 d Method B Complete agar a / Fungal growth after 28 d Method B Complete agar b: 0: No growth evident when viewed with a microscope.; 1: Slight growth, no growth evident to the naked eye, readily apparent microscopically.; Slight growth, readily apparent macroscopically, growth over not more than 25% of the sample surface.; 3: Moderate growth, growth over up to 50% of the sample surface.; 4: Severe growth, growth over more than 50% of the sample surface, but not over the entire area.; 5: Severe growth over the entire sample surface; conditions: silicone; for Fungal growth after 28 d Method B Complete agar a: duplicate a; for Fungal growth after 28 d Method B Complete agar b: duplicate b
# Experimental: The microbiological tests were carried out each in duplicate determinations along the lines of the standard EN ISO 846 B. For this purpose the sealants themselves were applied to inert support material (e.g., glass plates) approximately 2 mm thick, and, after curing, were cut into sections measuring 3×3 cm.
# […] In this test, the test specimens were placed on carbon-containing nutrient media (complete agar) for monitoring of the fungicidal action, and were then sprayed with a mixture of fungal spores; 0.1 ml of suspension per test specimen.
# The spore suspension contained 10^6 CFU/ml and comprised the following fungi:
# The samples thus inoculated were incubated at 25° C. for 28 days. This was followed by a visual evaluation of the sample surface. Where no growth was evident with the naked eye, the test took place with the assistance of a microscope. The ISO 846 tests were evaluated using the following scheme: • 0 No growth evident when viewed with a microscope. • 1 Slight growth, no growth evident to the naked eye, readily apparent microscopically. • 2 Slight growth, readily apparent macroscopically, growth over not more than 25% of the sample surface. • 3 Moderate growth, growth over up to 50% of the sample surface. • 4 Severe growth, growth over more than 50% of the sample surface, but not over the entire area. • 5 Severe growth over the entire sample surface.
# [3] = acetoxy basis, 500 ppm, water storage 0 d
# [4] = acetoxy basis, 500 ppm, water storage 3 months (once a week 24 hour storage in fully demineralized water)
# [5] = acetoxy basis, 1000 ppm, water storage 0 d
# [6] = acetoxy basis, 1000 ppm, water storage 3 months (once a week 24 hour storage in fully demineralized water)
# [7] = oxime basis, 500 ppm, water storage 0 d
# [8] = oxime basis, 500 ppm, water storage 2 d
# [9] = oxime basis, 1000 ppm, water storage 0 d
# [10] = oxime basis, 1000 ppm, water storage 2 d
smiles,measurement,setting,value
"CCCCCCCCn1sccc1=O [OIT, 2-n-octyl-4-isothiazolin-3-one]",Amount of active (ppm) With water storage,"[1]; acetoxy system, 400 ppm of OIT introduced, after 2 days of water storage",265 ppm
same,% leaching,"[1]; acetoxy system, 400 ppm of OIT introduced, calculated from amounts without and after 2 days of water storage",37%
same,Amount of active (ppm) Without water storage,"[1]; acetoxy system, 400 ppm of OIT introduced, without water storage",420 ppm
same,Active [ppm] Oit,[1]; 0 d (before water storage),740 ppm
same,Active [ppm] Oit,[1]; 2 d (after water storage),230 ppm
same,Fungal growth after 28 d Method B Complete agar a,[2]; [3],1
same,Fungal growth after 28 d Method B Complete agar b,[2]; [3],"2 (Slight growth, readily apparent macroscopically, growth over not more than 25% of the sample surface.)"
same,Fungal growth after 28 d Method B Complete agar a,[2]; [4],5
same,Fungal growth after 28 d Method B Complete agar b,[2]; [4],5
same,Fungal growth after 28 d Method B Complete agar a,[2]; [5],0
same,Fungal growth after 28 d Method B Complete agar b,[2]; [5],0
same,Fungal growth after 28 d Method B Complete agar a,[2]; [6],"4 (Severe growth, growth over more than 50% of the sample surface, but not over the entire area.)"
same,Fungal growth after 28 d Method B Complete agar b,[2]; [6],5
same,fungal growth (in words),"[2]; acetoxy basis, after the 3-month water storage cycles",heavily overgrown
same,fungal growth / action (in words),"[2]; acetoxy basis, without water storage (0d)",good action
same,Fungal growth after 28 d Method B Complete agar a,[2]; [7],0
same,Fungal growth after 28 d Method B Complete agar b,[2]; [7],1
same,Fungal growth after 28 d Method B Complete agar a,[2]; [8],"3 (Moderate growth, growth over up to 50% of the sample surface.)"
same,Fungal growth after 28 d Method B Complete agar b,[2]; [8],"3 (Moderate growth, growth over up to 50% of the sample surface.)"
same,Fungal growth after 28 d Method B Complete agar a,[2]; [9],0
same,Fungal growth after 28 d Method B Complete agar b,[2]; [9],0
same,Fungal growth after 28 d Method B Complete agar a,[2]; [10],"3 (Moderate growth, growth over up to 50% of the sample surface.)"
same,Fungal growth after 28 d Method B Complete agar b,[2]; [10],"2 (Slight growth, readily apparent macroscopically, growth over not more than 25% of the sample surface.)"
same,fungal growth (in words),"[2]; oxime basis, after water storage (2d)",moderately severe growth
COC(=O)Nc1nc2ccccc2[nH]1 [carbendazim],Fungal growth after 28 d Method B Complete agar a,[2]; [3],"3 (Moderate growth, growth over up to 50% of the sample surface.)"
same,Fungal growth after 28 d Method B Complete agar b,[2]; [3],"4 (Severe growth, growth over more than 50% of the sample surface, but not over the entire area.)"
same,Fungal growth after 28 d Method B Complete agar a,[2]; [4],5
same,Fungal growth after 28 d Method B Complete agar b,[2]; [4],5
same,fungal colonization (in words),"[2]; acetoxy basis, 1000 ppm of active, without water storage (0d)",slight colonization
same,Fungal growth after 28 d Method B Complete agar a,[2]; [5],"2 (Slight growth, readily apparent macroscopically, growth over not more than 25% of the sample surface.)"
same,Fungal growth after 28 d Method B Complete agar b,[2]; [5],"2 (Slight growth, readily apparent macroscopically, growth over not more than 25% of the sample surface.)"
same,Fungal growth after 28 d Method B Complete agar a,[2]; [6],"4 (Severe growth, growth over more than 50% of the sample surface, but not over the entire area.)"
same,Fungal growth after 28 d Method B Complete agar b,[2]; [6],5
same,fungal growth (in words),"[2]; acetoxy basis, both 500 and 1000 ppm, after the 3-month water storage cycle",severe fungal growth
